Key:
Nrf2 = Nrf2 signaling fluorescent reporter assay in human retinal epithelial cell line; type: cell-based
Description: The assays were carried out with a fluorescent reporter assay that utilized a human retinal epithelial cell line. The assays also included validation by RT-PCR (reverse transcription polymerase chain reaction) of Nrf2 target genes. The human retinal epithelial cell line was purchased from ATCC (American Type Cell Culture, Manassas, Va.) and was configured to function as a fluorescent reporter assay. Test solutions of each of the alpha lipoic acid, resveratrol, curcumin, EGCG, Olivol®, rutin, quercetin, and hesperetin were prepared by serial dilution. Control solutions were also prepared. Positive control solutions of a known Nrf2 agonist, L-sulphoraphane was also prepared. Each test solution was then assayed for Nrf2 signaling activity using the fluorescent reporter assay and compared to control assays. The positive control solutions were also tested.

[1] = system: NF-κB reporter cells (HEK293); assay: Live cell multiplex read-out in the NF-κB antagonist assay; type: cell-based, human
Description: Various receptor assays were carried out for test compounds corresponding to ingredients of the nutritional supplement composition. In general, the receptor assays utilized reporter cells that either expressed a native receptor or a receptor hybrid. The receptor hybrids were engineered so that the native N-terminal DNA binding domain (DBD) was replaced with a yeast Gal4 DBD. The reporter cells expressed a hybrid receptor comprising either the native receptor (Nrf2 and NF-κB) or the N-terminal Gal4 DNA binding domain fused to the ligand binding domain of the specific human nuclear receptor (PPARα, PPARδ, and PPARγ). The reporter gene (e.g., firefly luciferase) was functionally linked to either upstream receptor-specific response elements (GRE) or the Gal4 upstream activation sequence (UAS). A summary of the receptors, the reporter cells used for each particular receptor assay, and the reference compounds used to confirm performance of the receptor assays are indicated below in Table 4.
A vehicle control was prepared. […] After incubation, fluorescence was measured to determine a relative number of live cells per test well.

C. elegans strain CB5586 = assay: Phenotypic lifespan screening in C. elegans; type: in vivo
Description: Dilutions of the test formulations were applied to individual populations of C. elegans and the lifespan of each population was monitored. Any changes in the lifespan of an individual population compared to a control population were recorded and correlated to the respective test formulation (N356 or N357) and the respective dilution (0.1 mg/ml, 1 mg/ml, and 10 mg/ml).
The N256 and N357 formulations were each prepared as individual 100 mg/ml stock solutions in dimethyl sulfoxide (DMSO). Serial dilutions of each stock solution were then prepared at 0.1 mg/ml, 1 mg/ml, and 10 mg/ml in DMSO. Control solutions of DMSO only were also prepared. Synchronous aged adult populations of C. elegans strain CB5586 worms were prepared. The CB5586 strain comprises a pharyngeal GFP (green fluorescent protein) tag and a mutation in the bus-5 gene. The pharyngeal GFP tag allows for fluorescent images of the worm populations to be taken. The mutation in the bus-5 gene causes the loss of normal cuticle antigens that permits the cuticle of the worms to become permeable to the test formulations and allow direct uptake of the test formulations to avoid interaction of the test formulations with protective mechanisms of the gut channel. Each serial dilution of each test formulation was added to a separate population of the prepared worms. The control solutions were also added to separate populations of the prepared worms. The populations of the prepared worms were then maintained on standard nematode growth media (NGM) agar plates at 20° C. with sufficient food (Escherichia coli strain OP-50).
Each worm population was then monitored by fluorescent imaging to determine the number of living and dead worms as a function of time. The fluorescent imaging was analyzed by software that recognized and counted worms based on their fluorescent intensity compared to background fluorescence. […] The ability to distinguish between living and dead worms allowed the number of living worms and a cumulative number of dead worms to be monitored against time. Worm populations from a selection of fluorescent images were manually checked to verify that the software had accurately counted the number of living and dead worms.
The counts of the living and dead worms as a function of time were then analyzed for each of the worm populations and used to prepare Kaplan-Meier survival curves and associated statistics for each of the worm populations. […] The median lifespan is shown as the length of time after the last mitotic division that 50% of the test population remains viable when compared to the control population. The maximum lifespan extension is shown as the length of time after the last mitotic division that 5% of the test population remains viable when compared to the control population.
The counts of the living and dead worms as a function of time and the Kaplan-Meier survival curves and the associated statistics were then analyzed for each of the worm populations. The analysis included determining mean and median lifespan. The analysis included a non-parametric test, the Log-Rank test, which compares two survival functions for the overall lifespan assay and provides a reliable p-value summarizing the whole experiment. The analysis also included Fisher's Exact Test that calculated the significance of survival function comparisons at multiple specific time points throughout the experiment, rather than for the overall lifespan. The results of the analysis are shown below in Tables 10-17.
Phenotypic screening was carried out as described in EXAMPLE 2 for various individual compounds of the N357 formulation. […] Alpha lipoic acid was sourced from PureBulk™ USA as a racemic mix of R and S stereoisomers and was assigned a sample number of N198. Hesperidin was sourced from Sigma Aldrich at ≥80% purity and was assigned a sample number of N347. […]

human NF-κB = assay: NF-κB reporter cell assay, antagonist mode; type: cell-based; settings: 2.54 μg/ml
mTOR = molecular target: T1, mTOR (Homo sapiens, UniProt P42345); settings: cited from earlier work
T1 construct: host or cells: isolated cells in culture (not specified)

Oc1ccc(/C=C/c2cc(O)cc(O)c2)cc1 [Resveratrol, 3,5,4′-trihydroxy-trans-stilbene]
activation of Nrf2 (Nrf2; 10 μM and 1): demonstrated activation of Nrf2 | concentration with more activation of Nrf2 (Nrf2; of 10 μM and 1): 10 µM | NF-κB % Live Cell ([1]; 0.28 μg/ml (resveratrol series)): 100% | NF-κB % Live Cell ([1]; 0.85 μg/ml): 100% | Statistically Significant Result (C. elegans strain CB5586; 0.1 mg/ml compared to DMSO control): No statistical difference | effect on chronological lifespan (C. elegans strain CB5586; 0.1 and 10 mg/ml tested): significant positive and dose-dependent increase of chronological lifespan | NF-κB % Inhibition (human NF-κB): −50% | mTOR inhibition (mTOR; applied to isolated cells in culture): inhibit mTOR | mTOR inhibition, mitophagy and mitochondrial turnover (mTOR): inhibit mTOR, up-regulate mitophagy, and increase the rate of mitochondrial turnover

— patent publication US10632101B2, “Methods and compositions for supporting endogenous systems related to life span” (USANA Health Sciences, Inc., priority 2016, dated 2020)
